Reference: patent publication US20050234073A1, “Methods of inhibiting inflammation” (priority 2003, published 2005)
Marks after values point to notes of the source that are not given here. Blank lines part the entries; values can stand above or below the compound they belong to.

What was measured:
[1] = Hapten-induced (oxazolone) colitis; type: in vivo, mouse
Description: The hapten-induced colitis model using oxazolone (4-ethoxymethylene-2-phenyl-2-oxazolin-5-one) as the hapten was established in WT B6 or MTP^flox/floxMx1Cre mice as previously described. Briefly, 6 week-old female mice were injected intraperitoneally with vehicle or 500 μg pIpC at days 1, 3, 5 and 7 followed by application of 200 μl of 3% oxazolone (Sigma-Aldrich, St. Louis, Mo.) in 100% ethanol on the abdomen at day 8. On day 14, mice were anesthetized with tribromo-ethanol (Sigma-Aldrich) and 150 μl of 1% oxazolone in 50% ethanol administered per rectum via a 3.5F catheter. Wasting was monitored until day 18 at which time the mice were sacrificed and tissue samples collected for histological examination. Colonic tissue specimens for histological assessment of colitis were fixed in 10% buffered formalin phosphate and embedded in paraffin, cut into 5 micron thick sections and stained with hematoxylin-eosin. The stained paraffin sections were evaluated by for the following parameters of colitis on a scale of 0 to 3 according to known methods: hypervascularity, mononuclear cell infiltration, crypt hyperplasia, epithelial injury or ulceration, polymorphonuclear cell infiltration or crypt abscesses.
The effect of MTPp gene deletion on the clinicopathologic outcome of oxazolone-induced colitis was examined.

[2] = type: in vivo, mouse
Description: αGalCer was kindly provided by Dr. Michael Brenner (Brigham and Women's Hospital, Boston, Mass.). […] Mice were sacrificed and sera from peripheral blood subjected to […] (ALT) or aminoaspartate transferase (AST) assays. The kinetic quantitative determination of ALT in serum was performed by ALT/SGPT LIQUI-UV (Stanbio Laboratory, Boeme, Tex.) according to the manufacture's instructions. Fresh liver samples were collected for macroscopic and microscopic inspection. For microscopic examination, liver tissues were immediately fixed in 10% buffered formalin phosphate and embedded in paraffin, cut into sections and stained with hematoxylin-eosin. The clinical response to a hepatocyte mediated, CD1d-dependent response in vivo was evaluated (Osman, Y. et al. Eur. J. Immunol. 30, 1919-1928 (2000)). […] The latter was evident from the absence of elevations of transaminases (FIG. 2D, panels c and d), macroscopic liver necrosis (FIG. 2E, panel d) or microscopic evidence of hepatitis (FIG. 2F, panel d) in the MTP^flox/floxMx1Cre mice that received αGalCer with prior pIpC treatment.

[3] = target: recombinant murine CD1d, beta2m associated, purified by baculovirus expression system (mouse) (UniProt P11609); assay: cell-based or functional assay
Chain of recombinant murine CD1d, beta2m associated, purified by baculovirus expression system (mouse) (P11609 22-305): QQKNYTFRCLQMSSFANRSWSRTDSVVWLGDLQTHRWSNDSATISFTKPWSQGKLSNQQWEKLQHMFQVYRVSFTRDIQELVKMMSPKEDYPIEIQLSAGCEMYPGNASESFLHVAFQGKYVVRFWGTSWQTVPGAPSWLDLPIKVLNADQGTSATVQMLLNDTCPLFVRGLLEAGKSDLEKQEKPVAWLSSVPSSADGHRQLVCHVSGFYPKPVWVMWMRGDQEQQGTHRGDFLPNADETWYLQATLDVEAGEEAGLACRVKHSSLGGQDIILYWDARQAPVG

[4] = Assessment of plasma lipids and body weight after pIpC treatment; type: in vivo, mouse
Description: Female 6-8 week-old of both MTP^pflox/floxMx1Cre mice and WT B6 mice that had been injected intraperitoneally with either PBS as control or 500 μg polyinosinic-polycytidylic ribonucleic acid (pIpC, Sigma, St. Louis, Mo.) in PBS every other day for a total of four doses were sacrificed one or 10 days after the last pIpC injection at which time sera was obtained from peripheral blood. The serum was subjected to total cholesterol and triglyceride assays at the clinical laboratory of Brigham and Women's Hospital (Boston, Mass.).
To further substantiate a direct biochemical relationship between CD1d and MTP, the effects on CD1d expression and function was examined in a conditional MTP-deficient mouse model which contains a “floxed” MTPp gene (MTPp^flox/flox) that had been intercrossed with mice expressing Mx1 promoter controlled, Cre-recombinase (Raabe, M. et al. J. Clin. Invest. 103, 1287-1298 (1999); Bjorkegren, J., Beigneux, A., Bergo, M. O., Maher, J. J. & Young, S. G. J. Biol. Chem. 277, 5476-5483 (2002)). The Mx1 promoter is induced by interferon-inducing substances such as polyinosinic-polycytidylic acid (pIpC) (Raabe, M. et al. J. Clin. Invest. 103, 1287-1298 (1999); Bjorkegren, J., Beigneux, A., Bergo, M. O., Maher, J. J. & Young, S. G. J. Biol. Chem. 277, 5476-5483 (2002); Ralf, K., Schwenk, F., Aguet, M. & Rajewsky, K. Science. 269, 1427-1429 (1995)) such that treatment of MTPp^flox/floxMx1Cre mice with pIpC leads to deletion of the MTPp gene (MTPp^Δ/Δ) primarily within the liver, spleen and intestine providing a degree of tissue specificity to the gene deletion. As previously reported, treatment of 6-10 week old MTPp^flox/floxMx1Cre mice (or MTP^flox/floxMx1Cre mice) with pIpC caused progressive hepatic steatosis (1C) and decreases in serum triglyceride and cholesterol levels (Table 5) in association with decreased MTP mRNA levels as defined by RT-PCR (FIG. 1D) and protein levels (FIG. 1E) in liver and colon.

[5] = test system: CD1d; assay: Flow cytometric analysis of CD1d surface expression on splenocytes of pIpC treated mice; type: in vivo, mouse; details: for Mean fluorescence intensity: CD1d; for Mean fluorescence intensity / % CD1d+: splenocytes
Source text: Mouse cells were stained using the following antibodies: FITC-conjugated α-CD1d (1B1, PharMingen); PE-conjugated α-CD11c (HL3, PharMingen); FITC-conjugated α-1-A^d (AMS-32.1, PharMingen); PE-conjugated α-CD69 (H1.2F3, PharMingen); PE-conjugated α-B220 (RA3-6B2, PharMingen). Human cells were stained using: PE-conjugated α-CD83 (550634, PharMingen); FITC-conjugated α-HLA-A,B,C (557348, PharMingen); α-HLA DR,DP,DQ (32381A, PharMingen); α-CD1d (42.1 or 51.1.3); α-mouse IgG+IgM (AMI1708, Biosource, Camarillo, Calif.). Staining was performed in the presence of Via-Probe (PharMingen) and analyzed with a FACSort flow cytometer (Becton Dickinson).

[6] = C57BL/6J mice, 1 day after treatment
[7] = C57BL/6J mice, 10 days after treatment
[8] = MTPflox/floxMx1Cre mice, 1 day after treatment
[9] = MTPflox/floxMx1Cre mice, 10 days after treatment

Compound: CCOC=C1N=C(c2ccccc2)OC1=O [oxazolone, 4-ethoxymethylene-2-phenyl-2-oxazolin-5-one]
colitis induction ([1]; MTPflox/floxMx1Cre mice without pIpC): severe colitis

Compound: CCCCCCCCCCCCCCCCCCCCCCCCCC(=O)N[C@@H](CO[C@H]1O[C@H](CO)[C@H](O)[C@H](O)[C@H]1O)[C@H](O)[C@H](O)CCCCCCCCCCCCCC [αGalCer, α-galactosylceramide]
hepatitis induction ([2]; wild-type C57BL/6J and MTPflox/floxMx1Cre mice, without pIpC-induced deletion): induced hepatitis

MTP-mediated PE transfer to CD1d [3]: 0.4 to 1.6 picomoles
fluorescence of NBD-labeled PE transferred to plate-coated CD1d [3]: 5 fold
Compound: MTP purified from rat liver (from UniProt D4A1W8 22-896; P04785 20-509)

hepatic inflammation ([2]; mouse, in vivo): absence of inflammation
Compound: polyinosinic-polycytidylic ribonucleic acid [pIpC]
Serum triglycerides [4, 6]: 88.1 ± 6.6 mg/dL
Total S. Cholesterol [4, 6]: 96.2 ± 12.2 mg/dL
Serum triglycerides [4, 7]: 110.0 ± 11.2 mg/dL
Total S. Cholesterol [4, 7]: 127.0 ± 5.8 mg/dL
Serum triglycerides [4, 8]: 52.0 ± 7.5 mg/dL
Total S. Cholesterol [4, 8]: 55.1 ± 9.7 mg/dL
Serum triglycerides [4, 9]: 43.5 ± 7.3 mg/dL
Total S. Cholesterol [4, 9]: 49.2 ± 3.1 mg/dL
Mean fluorescence intensity ([5]; B6 mice): 8.0
Mean fluorescence intensity ([5]; MTPmx1 mice): 6.2 +/− 0.9*
CD1d expression ([5]; control wild-type mice injected with pIpC): No reduction
% CD1d+ ([5]; B6 mice): 42.2%
% CD1d+ ([5]; MTPmx1 mice): 29.9 +/− 4.7* %
colitis in response to oxazolone ([1]; MTPflox/floxMx1Cre mice pretreated with pIpC): little evidence of colitis
colitis ([1]; WT B6 mice exposed to oxazolone with pIpC administration): not ameliorated
